Experimental data reported in the supplement of paper PMC4862054.
Several values for one entry are separate records, joined by “and”; a condition that tells them apart may be missing. Equal entries are not always repeated.

Experiments:
Details in all cases: incubation time: 72 h
[1] = test system: MDA-MB-468; assay: normalised viability (% of control), CellTiter-Blue; higher = more viable cells (about 100 = DMSO control)
Protocol: (§1)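 DSRT, CellTiter-Blue viability, 72 h incubation. Signal is normalised to DMSO and benzethonium chloride controls. Value is the normalised response at dose 3.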

[2] = test system: MFM-223; assay: as above
Protocol: as §1

[3] = test system: BT-549; assay: as above
Protocol: as §1

[4] = test system: DU-4475; assay: normalised viability (% of control), CellTiter-Blue; higher = more viable cells (about 100 = DMSO control)
Method in brief: (§2)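 The reported figure is normalised viability at a single listed concentration of the series. Breast cancer cell lines (20 µl suspension) went onto 384-well plates holding compound in 5 µl medium for 72 h. CellTiter-Blue (2.5 µl, 2 h, 37 °C) was read by fluorescence at 560/590 nm, and each plate was scaled to vehicle at 100 and a positive kill control at 0.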

[5] = test system: CAL-120; assay: as above
Method in brief: as §2

[6] = test system: CAL-51; assay: as above
Method in brief: as §2

[7] = test system: BT-474; assay: as above
Method in brief: as §2

[8] = test system: MDA-MB-231; assay: as above
Method in brief: as §2

[9] = test system: MDA-MB-436; assay: as above
Method in brief: as §2

[10] = test system: HCC1599; assay: as above
Method in brief: as §2

[11] = test system: SK-BR-3; assay: as above
Method in brief: as §2

[12] = test system: MDA-MB-468; assay: as above; remark: listed apart in the source
Method in brief: as §2

[13] = test system: MDA-MB-453; assay: as above
Method in brief: as §2

[14] = test system: Hs578T; assay: as above
Method in brief: as §2

[15] = test system: HDQ-P1; assay: as above
Method in brief: as §2

[16] = test system: CAL-148; assay: as above
Method in brief: as §2

[17] = test system: MFM-223; assay: as above; remark: listed apart in the source
Method in brief: as §2

[18] = test system: CAL-85-1; assay: as above
Method in brief: as §2

[19] = test system: HCC1143; assay: as above
Method in brief: as §2

[20] = test system: BT-549; assay: as above; remark: listed apart in the source
Method in brief: as §2

[21] = test system: HCC1937; assay: as above
Method in brief: as §2

[22] = test system: MDA-MB-231; assay: drug sensitivity score (DSS), CellTiter-Blue viability (DSS (AUC-based score)); higher = stronger viability inhibition; extreme values may be limits of the assay
Method in brief: (§3)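 The drug sensitivity score was derived from the area under a fitted dose-response curve. To obtain the curves, breast cancer cells (20 µl suspension) were plated into 384-well plates with compound at 5 or 9 concentrations and kept for 72 h. Viability was measured by CellTiter-Blue fluorescence at 560/590 nm, with each plate normalised to 0.1 % DMSO and a positive kill control.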

[23] = test system: MFM-223; assay: as above
Method in brief: as §3

O=C1c2c(O)ccc(O)c2C(=O)c2c(NCCNCCO)ccc(NCCNCCO)c21 [Mitoxantrone]
Details	normalised viability [%]
[1], 10 nM	80.4
[2], 10 nM	85.9
[3], 10 nM	87.7
[4], 0.3 nM	89
[4], 3 nM	91.3
[4], 10 nM	45.8
[5], 1 nM	73.8
[5], 100 nM	44.6
[5], 1000 nM	17.3
[6], 0.3 nM	112
[6], 3 nM	111
[6], 10 nM	61.3
[7], 1 nM	99.4
[7], 100 nM	71.1
[7], 1000 nM	42
[8], 1 nM	82
[8], 100 nM	44.2
[8], 1000 nM	17.4
[9], 1 nM	87.2
[9], 100 nM	88.3
[9], 1000 nM	40.1
[10], 1 nM	97.6
[10], 100 nM	73.3
[10], 1000 nM	69.8
[11], 1 nM	84.2
[11], 100 nM	34.6
[11], 1000 nM	14.8
[12], 1 nM	97.1
[12], 100 nM	57.3
[12], 1000 nM	37.4
[13], 0.3 nM	98.7
[13], 3 nM	87.1
[13], 10 nM	74
[14], 1 nM	91.6
[14], 100 nM	77.5
[14], 1000 nM	38.4
[15], 0.3 nM	74.8
[15], 3 nM	86.7
[15], 10 nM	79.2
[16], 0.3 nM	91.2
[16], 3 nM	91.5
[16], 10 nM	57.9
[17], 1 nM	73.8
[17], 100 nM	84.4
[17], 1000 nM	35.2
[18], 0.3 nM	90.3
[18], 3 nM	84.3
[18], 10 nM	86.5
[19], 1 nM	83.4
[19], 100 nM	56.6
[19], 1000 nM	31.2
[20], 1 nM	82.4
[20], 100 nM	69
[20], 1000 nM	35.4
[21], 1 nM	65.7
[21], 100 nM	25
[21], 1000 nM	23.7

Details	drug sensitivity score
[22]	11.8
[23]	2.58

Nc1ccccc1NC(=O)c1ccc(CNc2nccc(-c3cccnc3)n2)cc1 [Mocetinostat]
Details	normalised viability [%]
[1], 100 nM	129
[2], 100 nM	80.7
[3], 100 nM	81.6
[4], 3 nM	97.2
[4], 30 nM	98.5
[4], 100 nM	103
[5], 10 nM	74.8
[5], 1000 nM	40.5
[5], 10000 nM	18.1
[6], 3 nM	106
[6], 30 nM	96.9
[6], 100 nM	97.7
[7], 10 nM	113
[7], 1000 nM	96.8
[7], 10000 nM	25.6
[8], 10 nM	85.7
[8], 1000 nM	75.7
[8], 10000 nM	22.4
[9], 10 nM	94
[9], 1000 nM	61.2
[9], 10000 nM	28.9
[10], 10 nM	102
[10], 1000 nM	54.6
[10], 10000 nM	23.5
[11], 10 nM	101
[11], 1000 nM	55.5
[11], 10000 nM	3.29
[12], 10 nM	109
[12], 1000 nM	84.8
[12], 10000 nM	8.4
[13], 3 nM	116
[13], 30 nM	96.1
[13], 100 nM	87.5
[14], 10 nM	96.8
[14], 1000 nM	81.4
[14], 10000 nM	12.6
[15], 3 nM	108
[15], 30 nM	119
[15], 100 nM	74
[16], 3 nM	89.2
[16], 30 nM	93.7
[16], 100 nM	99.8
[17], 10 nM	88
[17], 1000 nM	80.9
[17], 10000 nM	31.6
[18], 3 nM	93.3
[18], 30 nM	82
[18], 100 nM	86.9
[19], 10 nM	78.5
[19], 1000 nM	67
[19], 10000 nM	16.7
[20], 10 nM	91
[20], 1000 nM	67.1
[20], 10000 nM	35.9
[21], 10 nM	84.4
[21], 1000 nM	70.4
[21], 10000 nM	21.4

Details	drug sensitivity score
[22]	6.93
[23]	3.47

COc1nc(N)nc2c1ncn2[C@@H]1O[C@H](CO)[C@@H](O)[C@@H]1O [Nelarabine]
Details	normalised viability
[1], 100 nM	104% and 97.9%
[2], 100 nM	103% and 101%
[3], 100 nM	88.7% and 74.2%
[4], 3 nM	117% and 116%
[4], 30 nM	97% and 101%
[4], 100 nM	106% and 126%
[5], 10 nM	109% and 93.6%
[5], 1000 nM	96.1% and 105%
[5], 10000 nM	95.9% and 107%
[6], 3 nM	106% and 105%
[6], 30 nM	98.7% and 104%
[6], 100 nM	97.4% and 106%
[7], 10 nM	96.7% and 102%
[7], 1000 nM	92.1% and 93.3%
[7], 10000 nM	92.8% and 94.6%
[8], 10 nM	88.9% and 90.1%
[8], 1000 nM	87.8% and 95%
[8], 10000 nM	92.7% and 89.8%
[9], 10000 nM	91.2% and 94.8%
[10], 10 nM	115% and 117%
[10], 1000 nM	108% and 123%
[10], 10000 nM	136% and 114%
[11], 10 nM	93.9% and 93.6%
[11], 10000 nM	102% and 82.1%
[12], 10 nM	97.3% and 99%
[12], 1000 nM	93.2% and 93.8%
[12], 10000 nM	94.3% and 93.1%
[13], 3 nM	93.2% and 104%
[13], 30 nM	99.5% and 116%
[13], 100 nM	93.8% and 101%
[14], 10 nM	103% and 92.6%
[14], 1000 nM	103% and 95.2%
[14], 10000 nM	89.4% and 85.8%
[15], 3 nM	77.3% and 89.3%
[15], 30 nM	91.1% and 89.2%
[16], 3 nM	92% and 97%
[16], 30 nM	94.7% and 93.5%
[16], 100 nM	95.4% and 91.8%
[17], 10 nM	108% and 111%
[17], 1000 nM	94.9% and 98.1%
[17], 10000 nM	103% and 104%
[18], 3 nM	99.3% and 102%
[18], 30 nM	98.7% and 100%
[18], 100 nM	101% and 102%
[19], 1000 nM	103% and 88.2%
[19], 10000 nM	105% and 89.6%
[20], 10 nM	95.2% and 85.3%
[20], 1000 nM	98% and 91%
[20], 10000 nM	86.4% and 80.4%
[21], 1000 nM	109% and 93.9%
[21], 10000 nM	92.3% and 80.8%

Details	drug sensitivity score
[22]	0
[23]	0
